Values quoted from earlier work in US5045452A, “Method for evaluating nephrotoxicity” (Brigham and Women's Hospital, priority 1988, dated 1991).

Test system: N-acetyl-beta-D-glucosaminidase
Conditions: exposed workers

In the case of [Pb] [lead], the “urinary acetyl glucosaminidase excretion” value is listed as “elevated”.
